According to patent US6458782B1, “Remedies for diabetes” (priority 1997, dated 2002):

Key:
[1] = system: adipocyte strain 3T3L1; assay: Enhancement of the differentiation of precursor adipocytes into adipocytes induced by a thiazoline compound (troglitazone); assay type: cell-based; conditions: for Absorbance (490 nm): single compound 10^−7 M, culture 10 days, Control 0.086
From the text: The culture was continued for 10 days.

[2] = system: diabetic mice (C57BL/6J-Lepob); assay: Hypoglycemic action in diabetes model mice (blood glucose and acylglycerol level); assay type: in vivo; conditions: for Blood acylglyerol level, percentage based on the control group / Blood glucose level, percentage based on the control group / Blood acylglyerol level / Blood glucose level: 6th day; for Blood acylglyerol level: Control 132 ± 14; for Blood glucose level: Control 428 ± 82
Protocol: Experiments were performed by using diabetic mice hereditarily have pathological conditions of fatness, hyperglycemia, and hyperlipidemia (C57BL/6J-Lepob, female, Jackson Laboratory, 10-week old) according to the method described in the literature (Diabetologia, 14, 141, 1978). Blood samples were collected one day before the start of the administration, and the mice were divided into three groups (one group consisted of 4 or 5 mice). One group was used as a medication group, and each mouse of the group was orally administered with HX-600 suspended in 0.1% carboxymethylcellulose as microparticules (30 mg/kg/day or 100 mg/kg/day) every day for 6 days. Mice of the control group were orally administered with only 0.1% carboxymethylcellulose. On the 6th day after the start of the administration, blood samples were collected from ophthalmic fundus veins.
Blood glucose level was measured by the glucose oxidase method (Fuji Drychem Slide GLU-P), and acylglycerol level was measured by the glycerol phosphate dehydrogenase method (Fuji Drychem Slide TG-P). As a measurement apparatus, Fuji Drychem 5000 was used. […] Percentages based on the control group are also indicated.

[3] = system: adipocyte strain 3T3L-1; assay: Differentiation of precursor adipocytes into adipocytes (Oil Red O staining, absorbance of extract); assay type: cell-based; conditions: culture for 13 days; for Absorbance (490 nm): Oil Red O extracted with isopropanol, Control 0.266
Protocol: (§1) Therefore, effect of the medicaments of the present invention on enhancement of differentiation of precursor adipocytes into adipocytes was examined by using an adipocyte strain 3T3L-1 (obtained from Japanese Cancer Research Resource Bank) according to the published method (Endocrinology, 137, 4706, 1996). The cells were cultured in a culture dish having a diameter of 6 cm as a monolayer, and added with HX600, HX-620, HX-630, or HX-640 when the cells reached a density at which the cells began to contact with one another. After the culture for 13 days, lipid droplets in the cells were stained with Oil Red O. The dye was extracted with 1.0 ml of isopropanol (a modified method described in Methods in Enzymology, 32, 192), and absorbance (490 nm) of the extract was measured and used as index of differentiation into adipocytes.

[4] = system: adipocyte strain 3T3L-1; assay: Enhancement of the differentiation of precursor adipocytes into adipocytes induced by insulin; assay type: cell-based; conditions: for Absorbance (490 nm): culture 9 days, Not added 0.072
Protocol: as §1
Synergistic effect of insulin used for therapeutic treatment of diabetes and the medicament of the present invention was examined. Cells of the adipocyte strain 3T3L-1 were cultured in a culture dish having a diameter of 3.5 cm as a monolayer, and added with 10 μg/ml of insulin and HX-600 (10^−6 M or 10^−8 M) when the cells reached a density at which the cells began to contact with one another. The culture was continued for 9 days.

[5] = 30 mg/kg/day and 100 mg/kg/day, 6th day of the administration

Compound | Absorbance (490 nm) [1] | Absorbance (490 nm) ([3]; 10^−6 M) | Absorbance (490 nm) ([3]; 10^−7 M) | Absorbance (490 nm) ([3]; 10^−8 M) | differentiation of precursor adipocyte 3T3L-1 into adipocytes (in words) [3] | also measured
Cc1c(C)c2c(c(C)c1O)CCC(C)(COc1ccc(CC3SC(=O)NC3=O)cc1)O2 (stereo not drawn) [CS-045, troglitazone, reference compound] | 0.171 | – | – | – | – | –
CN1c2ccccc2N=C(c2ccc(C(=O)O)cc2)c2cc3c(cc21)C(C)(C)CCC3(C)C [HX-600, 4-[5H-2,3-(2,5-dimethyl-2,5-hexano)-5-methyldibenzo [b,e][1,4]diazepin-11-yl]benzoic acid] | 0.131 | 0.690 | 0.445 | 0.274 | strongly promoted | action of inducing differentiation into adipocytes by CS-045 (in words) ([1]; HX600 10^−7 M with CS-045 10^−7 M, 10 days): synergistically promoted; acylglycerol level versus the control group (in words) [2, 5]: remarkably lower; blood glucose level versus the control group (in words) [2, 5]: remarkably lower; Blood acylglyerol level, percentage based on the control group ([2]; 30 mg/kg/day oral for 6 days): 79.5%; Blood glucose level, percentage based on the control group ([2]; 30 mg/kg/day oral for 6 days): 60.3%; Blood acylglyerol level ([2]; 30 mg/kg/day oral for 6 days): 105 ± 14 mg/dL; Blood glucose level ([2]; 30 mg/kg/day oral for 6 days): 258 ± 56 mg/dL; Blood acylglyerol level, percentage based on the control group ([2]; 100 mg/kg/day oral for 6 days): 72.7%; Blood glucose level, percentage based on the control group ([2]; 100 mg/kg/day oral for 6 days): 55.6%; Blood acylglyerol level ([2]; 100 mg/kg/day oral for 6 days): 96 ± 11 mg/dL; Blood glucose level ([2]; 100 mg/kg/day oral for 6 days): 238 ± 59 mg/dL; Absorbance (490 nm) ([4]; HX-600 10^−6 M alone): 0.287; differentiation into adipocytes induced by the action of insulin (in words) ([4]; HX-600 10^−6 M and 10^−8 M with insulin 10 μg/ml, 9 days): synergistically promoted; Absorbance (490 nm) ([4]; HX-600 10^−8 M alone): 0.118
CC1(C)CCC(C)(C)c2cc3c(cc21)Oc1ccccc1N=C3c1ccc(C(=O)O)cc1 [HX-620, 4-[2,3-(2,5-dimethyl-2,5-hexano)dibenzo[b,f][1,4]oxazepin-11-yl]benzoic acid] | – | 0.543 | 0.308 | 0.225 | strongly promoted | –
CC1(C)CCC(C)(C)c2cc3c(cc21)Sc1ccccc1N=C3c1ccc(C(=O)O)cc1 [HX-630, 4-[2,3-(2,5-dimethyl-2,5-hexano)dibenzo[b,f][1,4]thiazepin-11-yl]benzoic acid] | – | 0.745 | 0.471 | 0.298 | strongly promoted | –
4-[2,3-(2,5-dimethyl-2,5-hexano)dibenzo[b,e]azepin-11-yl]benzoic acid [HX-640] | – | 0.825 | 0.694 | 0.365 | strongly promoted | –
insulin | – | – | – | – | – | Absorbance (490 nm) ([4]; insulin 10 μg/ml alone): 0.301
